The values below come from ChEMBL document CHEMBL1158329, “Four new cytotoxic germacranolides from Carpesium divaricatum” (1997).

Converted amounts (≈) assume the structure as drawn.

What all share (assay type): functional
What all share (conditions): read-out: ED50 (the source's name)

In one experiment the test system is SK-MEL-2. The experiment is described as follows: Cytotoxicity against human SK-MEL-2 cells by SRB assay. (In SRB staining, fixed cells bind dye roughly in proportion to their protein.)
Another experiment has as its system SK-OV-3. The experiment is described as follows: Cytotoxicity against human SKOV3 cells by SRB assay.
In the next experiment the test system is XF498. The experiment is described as follows: Cytotoxicity against human XF498 cells by SRB assay.
Another experiment relates to A549. Nature of the experiment: Cytotoxicity against human A549 cells by SRB assay.
A further experiment relates to HCT-15. The experiment is described as follows: Cytotoxicity against human HCT15 cells by SRB assay.

In the case of `C=C1C(=O)O[C@@H]2[C@@H]1[C@H](OC(=O)/C(C)=C\C)C(=O)[C@@H](C)C[C@H](O)C[C@](C)(O)[C@H]2OC(=O)C(C)CC` (stereo not given in full) [CARDIVIN A], the EC50 in the experiment with SK-MEL-2 amounted to 1.16 µg/mL (≈ 2.41 µM); with SK-OV-3 it was 1.47 µg/mL (≈ 3.06 µM); in the experiment on XF498 it was 1.4 µg/mL (≈ 2.91 µM); in the experiment with A549 it was 3.17 µg/mL (≈ 6.6 µM); in the experiment with HCT-15 it was 1.28 µg/mL (≈ 2.66 µM).
Taken in the same sequence, the figures for `C=C1C(=O)O[C@@H]2[C@@H]1[C@H](OC(=O)C(C)CC)C(=O)[C@@H](C)C[C@H](O)C[C@](C)(O)[C@H]2OC(=O)C(C)C` (stereo not given in full) [CARDIVIN B] were 1.45 µg/mL (≈ 3.09 µM), 2.24 µg/mL (≈ 4.78 µM), 1.69 µg/mL (≈ 3.61 µM), 3.71 µg/mL (≈ 7.92 µM) and 2.06 µg/mL (≈ 4.4 µM).
Taken in the same sequence, the figures for `C=C1C(=O)O[C@@H]2[C@@H]1[C@H](OC(=O)C(C)C)C(=O)[C@@H](C)C[C@H](O)C[C@](C)(O)[C@H]2OC(=O)/C(C)=C\C` [CARDIVIN C] were 1.08 µg/mL (≈ 2.31 µM), 1.6 µg/mL (≈ 3.43 µM), 1.31 µg/mL (≈ 2.81 µM), 3.12 µg/mL (≈ 6.69 µM) and 1.38 µg/mL (≈ 2.96 µM).
Taken in the same sequence, the figures for `C=C1C(=O)O[C@@H]2[C@@H]1[C@H](OC(=O)C(C)C)C(=O)[C@@H](C)C[C@H](O)C[C@](C)(O)[C@H]2OC(=O)C(C)C` [CARDIVIN D] were 1.88 µg/mL (≈ 4.14 µM), 3.78 µg/mL (≈ 8.32 µM), 3.05 µg/mL (≈ 6.71 µM), 8.36 µg/mL (≈ 18.4 µM) and 3 µg/mL (≈ 6.6 µM).
For the compound `COc1cccc2c1C(=O)c1c(O)c3c(c(O)c1C2=O)C[C@@](O)(C(=O)CO)C[C@@H]3O[C@H]1C[C@H](N)[C@H](O)[C@H](C)O1` [DOXORUBICIN], the EC50 with SK-MEL-2 stood at 0.11 µg/mL (≈ 0.202 µM); with SK-OV-3, 0.13 µg/mL (≈ 0.239 µM); in the experiment on XF498 it was 0.23 µg/mL (≈ 0.423 µM); in the experiment on A549, 0.12 µg/mL (≈ 0.221 µM); with HCT-15, 2.4 µg/mL (≈ 4.42 µM).
